Here are results for one compound from publication PMC5124248, “Antitumor activity of TY-011 against gastric cancer by inhibiting Aurora A, Aurora B and VEGFR2 kinases” (Journal of Experimental & Clinical Cancer Research : CR, 2016).

Read-outs that look alike come from different tables or passages of the source.

As usually defined, the IC50 is the point on the concentration scale where inhibition reaches its midpoint.

The target of one experiment is T1, VEGFR2 (Homo sapiens, UniProt P35968).
T1 construct: purchased Carna Biosciences (Kobe, Japan)
The experiment is described as follows: HTRF KinEASE-TK kinase assay, VEGFR2. The experiment is classed as biochemical. Particulars: mean ± SD of three independent experiments. An excerpt: (§1) The inhibition of TY-011 on activity of Aurora A, Aurora B and VEGFR2 was characterized by HTRF® KinEASE™-STK/TK kit according to the manufacturer’s instructions (Cisbio Assays, Codolet, France). Aurora A and Aurora B were gifts from Professor Jia Li, Shanghai Institute of Materia Medica/Chinese Academy of Sciences. VEGFR2 was purchased from Carna Biosciences (Kobe, Japan).
On the technique in general: In TR-FRET formats the signal depends on donor and acceptor labels being close together.

The target of the next experiment is T2, Aurora A (Homo sapiens, UniProt O14965).
T2 construct: gift from Professor Jia Li, Shanghai Institute of Materia Medica/Chinese Academy of Sciences
T2 sequence (O14965 1-403): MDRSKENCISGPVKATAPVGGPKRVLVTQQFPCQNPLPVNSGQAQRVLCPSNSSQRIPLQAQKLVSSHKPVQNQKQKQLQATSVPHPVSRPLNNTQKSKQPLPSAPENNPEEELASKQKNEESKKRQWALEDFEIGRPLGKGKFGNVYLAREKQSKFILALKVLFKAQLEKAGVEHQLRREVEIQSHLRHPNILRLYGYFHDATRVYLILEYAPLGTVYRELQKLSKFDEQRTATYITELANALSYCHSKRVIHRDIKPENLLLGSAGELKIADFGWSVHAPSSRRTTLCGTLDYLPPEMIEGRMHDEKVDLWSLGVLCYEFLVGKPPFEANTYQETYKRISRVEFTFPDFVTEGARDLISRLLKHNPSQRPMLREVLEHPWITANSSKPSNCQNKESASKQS
The experiment is described as follows: HTRF KinEASE-STK kinase assay, Aurora A. The experiment is classed as biochemical.
From the text: as §1

Experiment [1] concerns p-Histone H3 (S10), substrate of Aurora B. Briefly: Cellular Histone H3 phosphorylation (western blot, immunofluorescence) in MGC-803 cells. Type of experiment: cell-based, human. The protocol:
The proteins of whole cell lysates were prepared in RIPA buffer containing protease and phosphatase inhibitors (Thermo Fisher Scientific, Waltham, MA, USA), and quantified by the bicinchoninic acid (BCA) method. Immunoblotting analysis of proteins in cell lysates was performed as previously described. Primary antibodies used were as follows: anti-Aurora A (#12100), anti-p-Aurora A (Thr288) (#3079), anti-Histone H3 (#4499), and anti-p-Histone H3 (Ser10) (#9701), and anti-cleaved caspase 3 (#9661) were purchased from Cell Signaling Technology (Danvers, MA, USA); anti-PARP-1 (#sc-8007) and anti-GAPDH (#sc-25778) were purchased from Santa Cruz (CA, USA).
Cells were cultured on glass slides coated with 0.05 mg/ml PDL (Sigma-aldrich, St. Louis, MO, USA) in the presence of TY-011 (0.8 μM) or equivalent amount of DMSO for 24 h. The cells were fixed in 4% paraformaldehyde at room temperature, then permeabilized with 0.15% Triton-X100 and blocked in 3% BSA in PBS. The primary antibodies were incubated with slides at 1:100 dilution in PBS containing 3% BSA in a wet chamber at 4 °C overnight. […] The images were captured with FCFM (fluorescence confocal microscope) (Olympus FV1000 IX81, Tokyo, Japan) under appropriate excitation and emission filters or phase-contrast microscope (Olympus IX73, Tokyo, Japan). […]

T1 sequence (P35968 790-1356 limits assumed): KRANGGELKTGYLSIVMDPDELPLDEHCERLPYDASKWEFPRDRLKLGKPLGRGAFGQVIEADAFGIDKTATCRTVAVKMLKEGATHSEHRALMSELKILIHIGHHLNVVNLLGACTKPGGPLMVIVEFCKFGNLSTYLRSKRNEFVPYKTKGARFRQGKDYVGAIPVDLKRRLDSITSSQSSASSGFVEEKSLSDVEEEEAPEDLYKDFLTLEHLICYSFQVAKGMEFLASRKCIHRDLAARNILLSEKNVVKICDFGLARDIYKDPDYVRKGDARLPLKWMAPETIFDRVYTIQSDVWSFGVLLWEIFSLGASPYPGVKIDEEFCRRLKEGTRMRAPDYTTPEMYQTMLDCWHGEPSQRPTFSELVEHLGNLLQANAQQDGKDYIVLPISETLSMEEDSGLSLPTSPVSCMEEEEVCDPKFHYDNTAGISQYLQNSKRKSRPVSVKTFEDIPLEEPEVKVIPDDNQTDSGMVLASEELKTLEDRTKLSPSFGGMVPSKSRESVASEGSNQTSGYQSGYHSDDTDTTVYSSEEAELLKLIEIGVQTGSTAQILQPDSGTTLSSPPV

As to `CCc1cc2c(cn1)C(c1ccccc1Cl)=Nc1c(n[nH]c1C)N2` [TY-011, 9-(2-chloro-phenyl)-6-ephyl-1-methyl-2,4-dihydro-2,3,4,7,10-pentaaza-benzo[f]azulene], the IC50 at VEGFR2 turned out to be 103 ± 6.2 nM; at Aurora A (Table S1, read-out: IC50 Aurora A), 100 nM; on Aurora A (mean ± SD of three independent experiments, read-out: Aurora A IC50) it was 102 ± 10.1 nM. Further, the “p-Histone H3 (S10), immunofluorescence” value in experiment [1] (MGC-803, 0.8 μM, 24 h) is listed as “decreased sharply”. Also, the “phosphorylation of Histone H3 (S10), western blot” value in experiment [1] (MGC-803 synchronized with nocodazole (100 nM) 16 h, then various concentrations for 24 h) is given as “strongly inhibited”.
